Consider seven compounds from US5212286A, “Atrial Natriuretic/vasodilator peptide compounds” (Scios Nova Inc., priority 1986, dated 1993).

Positions of bridges follow the written chain, without caps; N, C: chain ends. Non-standard residues stand in square brackets, D forms with d. Residues, ends and D or L forms follow the SMILES beside them.

The test system of one test is intact rats. The test is described as follows: Natriuretic and diuretic effects in intact rats (bolus injection). The class given is in vivo, rat. Here is the method:
Synthetic ANVP compounds […] hANVP(127-151) were also found to be natriuretic in the intact rat. These compounds were administered as a bolus injection to Inactin anesthetized rats (100 mg/kg, average weight 399 g) which were maintained on a constant infusion of normal saline at 2.2 ml/hr. […] Data are expressed as mean±SE.

In test [1] the test system is precontracted rabbit or rat aortic preparations. The test is described as follows: Vasorelaxant potency on precontracted aortic rings. The following applies: for IC50: thoracic aortic segments precontracted with histamine or norepinephrine, read-out: IC50 (concentration producing half-maximal relaxation of the precontracted tissue); for vasorelaxant potency in words: precontracted vascular preparations. Here is the method: Synthetic ANVP compounds were compared to partially purified (gel filtration step) and purified (HPLC) native ANVP compounds (See FIGS. 3A-D) for their ability to relax histamine-contracted aortic rings. Rings were suspended in 10 ml aerated Kreb's buffer under 1.5 gm passive tension. Rings were precontracted with 5 X 10^-6 M histamine, washed and allowed to return to baseline tension, as described ([…]., supra). Increasing amounts of purified or synthetic ANVP compounds were then added in cumulative fashion. […] The relaxation effects of various ANVP compounds on precontracted rabbit or rat aortic preparations are shown in Table III. | Thoracic aortic segments were precontracted with histamine or | norepinephrine as previously described. Various doses of ANVP compounds | were then added and relaxation of the precontracted state was monitored. | Data are expressed as the concentration of each peptide required to | produce a halfmaximal relaxation of the precontracted tissue (IC50).

Turning to `CC[C@H](C)[C@@H]1NC(=O)[C@H](CCCNC(=N)N)NC(=O)[C@H](CC(=O)O)NC(=O)[C@H]([C@@H](C)CC)NC(=O)[C@H](CCCNC(=N)N)NC(=O)[C@@H](C)NC(=O)CNC(=O)[C@H](Cc2ccccc2)NC(=O)[C@@H](NC(=O)[C@H](CO)NC(=O)[C@H](CO)NC(=O)[C@@H](N)CCCNC(=N)N)CSSC[C@@H](C(=O)N[C@@H](CC(N)=O)C(=O)N[C@@H](CO)C(=O)N[C@@H](Cc2ccccc2)C(=O)N[C@@H](CCCNC(=N)N)C(=O)N[C@@H](Cc2ccc(O)cc2)C(=O)O)NC(=O)CNC(=O)[C@H](CC(C)C)NC(=O)CNC(=O)[C@H](CO)NC(=O)[C@H](CCC(N)=O)NC(=O)[C@H](C)NC(=O)CNC1=O` [[D-Ala^132]rANVP(126-150), H-Arg-Ser-Ser-Cys-Phe-Gly-[D-Ala]-Arg-Ile-Asp-Arg-Ile-Gly-Ala-Gln-Ser-Gly-Leu-Gly-Cys-Asn-Ser-Phe-Arg-Tyr-OH], in the test with intact rats (dose 3670 pmol/kg), the “Peak Na+ Excr.” value came to 20 ± 5 µmol/min and the “Peak Urine Vol.” value came to 89 µL/min.
As to `CC[C@H](C)[C@@H]1NC(=O)[C@H](CCCNC(=N)N)NC(=O)CNC(=O)CNC(=O)[C@H](Cc2ccccc2)NC(=O)[C@@H](NC(=O)[C@H](CO)NC(=O)[C@H](CO)NC(=O)[C@@H](N)CCCNC(=N)N)CSSC[C@@H](C(=O)N[C@@H](CC(N)=O)C(=O)N[C@@H](CO)C(=O)N[C@@H](Cc2ccccc2)C(=O)N[C@@H](CCCNC(=N)N)C(=O)N[C@@H](Cc2ccc(O)cc2)C(=O)O)NC(=O)CNC(=O)[C@H](CC(C)C)NC(=O)CNC(=O)[C@H](CO)NC(=O)[C@H](CCC(N)=O)NC(=O)[C@H](C)NC(=O)CNC(=O)[C@@H](C(C)C)NC(=O)[C@H](CCCNC(=N)N)NC(=O)[C@H](CC(=O)O)NC1=O` [[D-Val^137]rANVP(126-150), H-Arg-Ser-Ser-Cys-Phe-Gly-Gly-Arg-Ile-Asp-Arg-[D-Val]-Gly-Ala-Gln-Ser-Gly-Leu-Gly-Cys-Asn-Ser-Phe-Arg-Tyr-OH], the IC50 in test [1] was 40 nM. Besides, in the test on intact rats (Table VII doses), the “diuresis and natriuresis in intact rats, in words” value is given as “exceptions”. Besides, in the test with intact rats (dose 3670 pmol/kg), the “Peak Na+ Excr.” value came to 0.54 ± 0.3 µmol/min and the “Peak Urine Vol.” value is 9.5 ± 5 µL/min.
Take `CC[C@H](C)[C@@H]1NC(=O)[C@H](CCCNC(=N)N)NC(=O)[C@H](CC(=O)O)NC(=O)[C@H]([C@@H](C)CC)NC(=O)[C@H](CCCNC(=N)N)NC(=O)CNC(=O)[C@@H](C)NC(=O)[C@H](Cc2ccccc2)NC(=O)[C@@H](NC(=O)[C@H](CO)NC(=O)[C@H](CO)NC(=O)[C@@H](N)CCCNC(=N)N)CSSC[C@@H](C(=O)N[C@@H](CC(N)=O)C(=O)N[C@@H](CO)C(=O)N[C@@H](Cc2ccccc2)C(=O)N[C@@H](CCCNC(=N)N)C(=O)N[C@@H](Cc2ccc(O)cc2)C(=O)O)NC(=O)CNC(=O)[C@H](CC(C)C)NC(=O)CNC(=O)[C@H](CO)NC(=O)[C@H](CCC(N)=O)NC(=O)[C@H](C)NC(=O)CNC1=O` [[D-Ala^131]rANVP(126-150), H-Arg-Ser-Ser-Cys-Phe-[D-Ala]-Gly-Arg-Ile-Asp-Arg-Ile-Gly-Ala-Gln-Ser-Gly-Leu-Gly-Cys-Asn-Ser-Phe-Arg-Tyr-OH]: in test [1], the “vasorelaxant potency in words” value is given as “most potent” and the IC50 turned out to be 0.9 nM.
For `CC[C@H](C)[C@@H]1NC(=O)[C@H](CCCNC(=N)N)NC(=O)[C@H](CC(=O)O)NC(=O)[C@@H](C(C)C)NC(=O)[C@H](CCCNC(=N)N)NC(=O)CNC(=O)CNC(=O)[C@H](Cc2ccccc2)NC(=O)[C@@H](NC(=O)[C@H](CO)NC(=O)[C@H](CO)NC(=O)[C@@H](N)CCCNC(=N)N)CSSC[C@@H](C(=O)N[C@@H](CC(N)=O)C(=O)N[C@@H](CO)C(=O)N[C@@H](Cc2ccccc2)C(=O)N[C@@H](CCCNC(=N)N)C(=O)N[C@@H](Cc2ccc(O)cc2)C(=O)O)NC(=O)CNC(=O)[C@H](CC(C)C)NC(=O)CNC(=O)[C@H](CO)NC(=O)[C@H](CCC(N)=O)NC(=O)[C@H](C)NC(=O)CNC1=O` [[D-Val^134]rANVP(126-150), H-Arg-Ser-Ser-Cys-Phe-Gly-Arg-[D-Val]-Asp-Arg-Ile-Gly-Ala-Gln-Ser-Gly-Leu-Gly-Cys-Asn-Ser-Phe-Arg-Tyr-OH], the IC50 in test [1] turned out to be 13 nM.
Take `CC[C@H](C)[C@@H]1NC(=O)[C@H](CCCNC(=N)N)NC(=O)[C@H](CC(=O)O)NC(=O)[C@H]([C@@H](C)CC)NC(=O)[C@H](CCCNC(=N)N)NC(=O)CNC(=O)[C@@H](C)NC(=O)[C@H](Cc2ccccc2)NC(=O)[C@@H](NC(=O)[C@H](CO)NC(=O)[C@H](CO)NC(=O)[C@@H](N)CCCNC(=N)N)CSSC[C@@H](C(=O)N[C@@H](CC(N)=O)C(=O)N[C@@H](CO)C(=O)N[C@@H](Cc2ccccc2)C(=O)N[C@@H](CCCNC(=N)N)C(=O)N[C@@H](Cc2ccc(O)cc2)C(=O)O)NC(=O)CNC(=O)[C@H](CC(C)C)NC(=O)[C@@H](C)NC(=O)[C@H](CO)NC(=O)[C@H](CCC(N)=O)NC(=O)[C@H](C)NC(=O)CNC1=O` [[D-Ala^131][D-Ala^142]rANVP(126-150), H-Arg-Ser-Ser-Cys-Phe-[D-Ala]Gly-Arg-Ile-Asp-Arg-Ile-Gly-Ala-Gln-Ser-[D-Ala]-Leu-Gly-Cys-Asn-Ser-Phe-Arg-Tyr-OH] (H-RSSCF[dA]GRIDRIGAQS[dA]LGCNSFRY-OH; disulfide 4-20): in the test with intact rats (dose 3670 pmol/kg), the “Peak Na+ Excr.” value was 140 ± 8 µmol/min and the “Peak Urine Vol.” value is 30 ± 7 µL/min.
For the compound `CC[C@H](C)[C@@H]1NC(=O)[C@H](CCCNC(=N)N)NC(=O)[C@H](CC(=O)O)NC(=O)[C@H]([C@@H](C)CC)NC(=O)[C@H](CCCNC(=N)N)NC(=O)CNC(=O)CNC(=O)[C@H](Cc2ccccc2)NC(=O)[C@@H](NC(=O)[C@H](CO)NC(=O)[C@H](CO)NC(=O)[C@@H](N)CCCNC(=N)N)CSSC[C@@H](C(=O)N[C@@H](CC(N)=O)C(=O)N[C@@H](CO)C(=O)N[C@@H](Cc2ccccc2)C(=O)N[C@@H](CCCNC(=N)N)C(=O)N[C@@H](Cc2ccc(O)cc2)C(N)=O)NC(=O)CNC(=O)[C@H](CC(C)C)NC(=O)CNC(=O)[C@H](CO)NC(=O)[C@H](CCC(N)=O)NC(=O)[C@H](C)NC(=O)CNC1=O` [rANVP(126-150)-NH2, H-Arg-Ser-Ser-Cys-Phe-Gly-Gly-Arg-Ile-Asp-Arg-Ile-Gly-Ala-Gln-Ser-Glyn-Leu- Gly-Cys-Asn-Ser-Phe-Arg-Tyr-NH2], in test [1], the “vasorelaxant potency in words” value was “most potent” and the IC50 was 0.8 nM. In the test on intact rats (dose 367 pmol/kg), the “Peak Na+ Excr.” value was 57 µmol/min and the “Peak Urine Vol.” value turned out to be 11.2 ± 1.6 µL/min.
Regarding `CC[C@H](C)[C@@H]1NC(=O)[C@H](CCCNC(=N)N)NC(=O)[C@H](CC(=O)O)NC(=O)[C@H]([C@@H](C)CC)NC(=O)[C@H](CCCNC(=N)N)NC(=O)[C@@H]2CCCN2C(=O)CNC(=O)[C@H](Cc2ccccc2)NC(=O)[C@@H](NC(=O)[C@H](CO)NC(=O)[C@H](CO)NC(=O)[C@@H](N)CCCNC(=N)N)CSSC[C@@H](C(=O)N[C@@H](CC(N)=O)C(=O)N[C@@H](CO)C(=O)N[C@@H](Cc2ccccc2)C(=O)N[C@@H](CCCNC(=N)N)C(=O)N[C@@H](Cc2ccc(O)cc2)C(=O)O)NC(=O)CNC(=O)[C@H](CC(C)C)NC(=O)CNC(=O)[C@H](CO)NC(=O)[C@H](CCC(N)=O)NC(=O)[C@H](C)NC(=O)CNC1=O` [[Pro^132]rANVP(126-150), H-Arg-Ser-Ser-Cys-Phe-Gly-Pro-Arg-Ile-Asp-Arg-Ile-Gly-Ala-GLn-Ser-Gly-Leu-Gly-Cys-Asn-Ser-Phe-Arg-Tyr-OH], the IC50 in test [1] was found to be 3.25 nM. Moreover, in the test on intact rats (dose 3670 pmol/kg), the “Peak Na+ Excr.” value was found to be 56 ± 20 µmol/min and the “Peak Urine Vol.” value came out at 10.5 ± 2 µL/min.
